Experiment in all cases: ≥ marks a high value that may be exact or a test limit, other limits are often not marked, values filed in µg/mL are converted to µM
Test [1] deals with Pseudomonas aeruginosa Ps4.
The subject of test [2] is Staphylococcus aureus ATCC 25923.
For test [3], the system named is Escherichia coli ATCC 25726.
Test [4] relates to Bacillus subtilis ATCC 23857.
For test [5], the system named is Escherichia coli ATCC 25922.
The test system of test [6] is Bacillus subtilis CMCC 63501.
Test [7] concerns Staphylococcus epidermidis ATCC 12228.
Test [8] has as its system Pseudomonas aeruginosa ATCC 27853.
The test system of test [9] is Enterococcus faecalis ATCC 29212.
Test [10] deals with Salmonella enterica subsp. enterica serovar Typhimurium C77-31.
In test [11] the test system is Escherichia coli UB1005.
Test [12] relates to Salmonella enterica subsp. enterica serovar Pullorum C79-13.
Test [13] has as its system Staphylococcus aureus ATCC 43300.
Test [14] relates to Staphylococcus aureus ATCC 29213.
Test [15] has as its system Klebsiella pneumoniae ATCC 700603.
Test [16] relates to Acinetobacter baumannii ATCC 19606.

≈ marks a conversion by molar mass, not a printed value.

For orientation: MIC means the least concentration at which growth counts as inhibited. Read a high MIC as a less susceptible organism.

In test [1], `CC[C@H](C)[C@H](NC(=O)[C@H](CCCN=C(N)N)NC(=O)[C@@H](NC(=O)[C@H](CC(N)=O)NC(=O)[C@H](CCCN=C(N)N)NC(=O)[C@H](CCC(N)=O)NC(=O)[C@H](Cc1c[nH]c2ccccc12)NC(=O)[C@H](Cc1ccccc1)NC(=O)[C@@H](N)Cc1ccccc1)[C@@H](C)CC)C(=O)N[C@@H](CCCN=C(N)N)C(=O)N[C@@H](CCCN=C(N)N)C(N)=O` [FFWQRNIRIRR] gave a minimum inhibitory concentration (MIC) not below 157 µM.

As to `CC[C@H](C)[C@H](NC(=O)[C@H](CCCCN)NC(=O)[C@H](C)NC(=O)[C@H](C)NC(=O)[C@H](CC(C)C)NC(=O)CNC(=O)[C@H](C)NC(=O)[C@H](CC(C)C)NC(=O)[C@@H](NC(=O)[C@@H]1CCCN1C(=O)[C@H](CC(C)C)NC(=O)[C@@H](N)Cc1ccccc1)[C@@H](C)CC)C(=O)N[C@H](C(=O)N1CCC[C@H]1C(=O)N[C@@H](CCCCN)C(=O)N[C@@H](CC(C)C)C(=O)N[C@@H](Cc1ccccc1)C(=O)N[C@H]1CSSC[C@@H](C(=O)O)NC(=O)[C@H](CCCCN)NC(=O)[C@H](CCCCN)NC(=O)[C@H]([C@@H](C)O)NC(=O)[C@H](C)NC(=O)[C@H](CC(C)C)NC1=O)C(C)C` [FLPILAGLAAKIVPKLFCLATKKC], the values for the MIC in test [2] and in test [3] were 2 µM (≈ 5.11 µg/mL) and not below 32 µM, respectively.

With `CC[C@H](C)[C@H](NC(=O)[C@H](CCCN=C(N)N)NC(=O)[C@H](CCC(N)=O)NC(=O)[C@H](Cc1c[nH]c2ccccc12)NC(=O)[C@@H](N)Cc1ccccc1)C(=O)N[C@@H](CCCN=C(N)N)C(=O)N[C@@H](CCCCN)C(=O)N[C@H](C(=O)N[C@@H](CCCN=C(N)N)C(N)=O)C(C)C` [FWQRIRKVR], the MIC in test [1] was not below 194 µM.

Consider `CC[C@H](C)[C@H](NC(=O)[C@H](CC(N)=O)NC(=O)[C@H](CCCN=C(N)N)NC(=O)[C@H](CCC(N)=O)NC(=O)[C@H](Cc1c[nH]c2ccccc12)NC(=O)[C@@H](N)Cc1ccccc1)C(=O)N[C@@H](CCCN=C(N)N)C(=O)N[C@@H](CCCCN)C(=O)N[C@@H](Cc1ccc(O)cc1)C(=O)N[C@@H](CCCN=C(N)N)C(N)=O` [FWQRNIRKYR], for which the MIC in [1] was not below 170 µM.

In test [1], `CC[C@H](C)[C@H](NC(=O)[C@H](CC(N)=O)NC(=O)[C@H](CCCN=C(N)N)NC(=O)[C@H](CCC(N)=O)NC(=O)[C@H](Cc1c[nH]c2ccccc12)NC(=O)[C@@H](N)Cc1ccccc1)C(=O)N[C@@H](CCCN=C(N)N)C(=O)N[C@@H](CO)C(=O)N[C@H](C(=O)N[C@@H](CCCN=C(N)N)C(N)=O)C(C)C` [FWQRNIRSVR] registered an MIC not below 184 µM.

On to `CC[C@H](C)[C@H](NC(=O)[C@H](Cc1c[nH]c2ccccc12)NC(=O)[C@H](CC(N)=O)NC(=O)[C@H](CCCN=C(N)N)NC(=O)[C@H](CCC(N)=O)NC(=O)[C@H](Cc1c[nH]c2ccccc12)NC(=O)[C@@H](N)Cc1ccccc1)C(=O)N[C@@H](CCCN=C(N)N)C(=O)N[C@@H](CCCN=C(N)N)C(N)=O` [FWQRNWIRR], for which the MIC in test [1] was not below 184 µM.

In test [1], `CC[C@H](C)[C@H](NC(=O)[C@H](CC(N)=O)NC(=O)[C@H](CO)NC(=O)[C@H](CCC(N)=O)NC(=O)[C@H](Cc1c[nH]c2ccccc12)NC(=O)[C@@H](N)Cc1ccccc1)C(=O)N[C@@H](CCCN=C(N)N)C(=O)N[C@@H](CCCCN)C(=O)N[C@H](C(=O)N[C@@H](CCCN=C(N)N)C(N)=O)C(C)C` [FWQSNIRKVR] gave an MIC not below 187 µM.

Consider `CC[C@H](C)[C@H](NC(=O)[C@H](CCCN=C(N)N)NC(=O)[C@H](Cc1c[nH]c2ccccc12)NC(=O)[C@H](CCCN=C(N)N)NC(=O)[C@H](Cc1c[nH]c2ccccc12)NC(=O)[C@@H](N)Cc1ccccc1)C(=O)N[C@@H](Cc1c[nH]c2ccccc12)C(=O)N[C@@H](CCCN=C(N)N)C(N)=O` [FWRWRIWR], for which the MIC in [1] amounted to 23.9 µM (≈ 31.2 µg/mL).

Molecule `CC[C@H](C)[C@H](NC(=O)[C@H](CC(N)=O)NC(=O)[C@H](CCCN=C(N)N)NC(=O)[C@H](CCC(N)=O)NC(=O)[C@H](Cc1ccc(O)cc1)NC(=O)[C@@H](N)Cc1ccccc1)C(=O)N[C@@H](CCCN=C(N)N)C(=O)N[C@@H](CCCCN)C(=O)N[C@H](C(=O)N[C@@H](CCCN=C(N)N)C(N)=O)C(C)C` [FYQRNIRKVR] gave an MIC in test [1] not below 181 µM.

In the case of `CC[C@H](C)[C@H](NC(=O)CNC(=O)[C@H](C)NC(=O)[C@@H](NC(=O)[C@H](C)NC(=O)CN)[C@@H](C)CC)C(=O)N[C@H](C(=O)N[C@H](C(=O)N[C@@H](CCCCN)C(=O)N[C@H](C(=O)N[C@@H](CCCCN)C(=O)N[C@@H](CCCCN)C(N)=O)[C@@H](C)CC)[C@@H](C)CC)[C@@H](C)CC` [GAIAGIIIKIKK], the MIC in [4] was not below 32 µM; in test [5], 64 µM (≈ 78.3 µg/mL).

`CC[C@H](C)[C@H](NC(=O)[C@H](CCCN=C(N)N)NC(=O)CNC(=O)[C@@H](NC(=O)[C@@H](NC(=O)[C@H](CCCN=C(N)N)NC(=O)[C@H](CCCCN)NC(=O)[C@H](Cc1ccccc1)NC(=O)[C@H](CCC(=O)O)NC(=O)[C@H](CCCCN)NC(=O)CN)[C@@H](C)CC)C(C)C)C(=O)N[C@@H](Cc1ccc(O)cc1)C(=O)N[C@@H](CCCN=C(N)N)C(=O)N[C@@H](CC(C)C)C(=O)N[C@@H](CS)C(=O)N[C@@H](CS)C(=O)N[C@@H](CCCN=C(N)N)C(N)=O` [GKEFKRIVGRIYRLCCR]: the MIC in test [6] was 8 µM (≈ 16.8 µg/mL); in [7], 16 µM (≈ 33.5 µg/mL); in test [8], 16 µM (≈ 33.5 µg/mL); in [9], 16 µM (≈ 33.5 µg/mL); in test [10], 8 µM (≈ 16.8 µg/mL); in test [5], 4 µM (≈ 8.39 µg/mL). Also, the MIC in [11] was found to be 4 µM (≈ 8.39 µg/mL); in test [12] it was 8 µM (≈ 16.8 µg/mL); in [13], 8 µM (≈ 16.8 µg/mL); in test [14], 16 µM (≈ 33.5 µg/mL).

For the molecule `CC[C@H](C)[C@H](NC(=O)[C@H](CCCCN)NC(=O)[C@H](CO)NC(=O)[C@H](C)NC(=O)[C@H](Cc1c[nH]c2ccccc12)NC(=O)CN)C(=O)NCC(=O)N[C@@H](CCC(N)=O)C(=O)N[C@H](C(=O)N[C@@H](CC(C)C)C(=O)NCC(=O)N[C@@H](CCCCN)C(=O)N[C@@H](CCSC)C(=O)N[C@@H](C)C(=O)N[C@@H](CCCCN)C(=O)N[C@H](C(=O)NCC(=O)N[C@@H](CC(C)C)C(=O)N[C@@H](CCC(N)=O)C(=O)N[C@@H](CCC(=O)O)C(=O)N[C@H](C(=O)N[C@H](C(=O)N[C@@H](CCC(N)=O)C(=O)N1CCC[C@H]1C(=O)N[C@@H](CCCCN)C(=O)O)[C@@H](C)CC)[C@@H](C)CC)C(C)C)[C@@H](C)O` [GWASKIGQTLGKMAKVGLQEIIQPK], the MIC in [2] is more than 50 µM; in [3], not below 50 µM.

As to `CC[C@H](C)[C@H](N)C(=O)N[C@@H](CCCN=C(N)N)C(=O)N[C@H](C(=O)N[C@@H](CCCN=C(N)N)C(=O)N[C@@H](CS)C(=O)N[C@@H](CCCN=C(N)N)C(=O)N[C@@H](CCCN=C(N)N)C(=O)N[C@@H](CCCN=C(N)N)C(=O)N[C@@H](Cc1ccccc1)C(=O)N[C@@H](CS)C(=O)N[C@@H](CCCN=C(N)N)C(=O)N[C@H](C(=O)N[C@@H](CCCN=C(N)N)C(=O)N[C@H](C(N)=O)[C@@H](C)CC)[C@@H](C)CC)[C@@H](C)CC` [IRIRCRRRFCRIRI], the MIC in test [15] was found to be 8 µM (≈ 15.3 µg/mL); in test [6], 2 µM (≈ 3.83 µg/mL); in [2] it was 8 µM (≈ 15.3 µg/mL); in [7], 4 µM (≈ 7.67 µg/mL); in [8] it was 4 µM (≈ 7.67 µg/mL); in [4], 4 µM (≈ 7.67 µg/mL). In addition, the MIC was found to be 4 µM (≈ 7.67 µg/mL) in test [10], 1 µM (≈ 1.92 µg/mL) in [12] and 4 µM (≈ 7.67 µg/mL) in test [14].

Turning to `NC(=O)[C@@H]1CCCN1C(=O)[C@H](CCCN=C(N)N)NC(=O)[C@@H]1CCCN1C(=O)[C@H](CCCN=C(N)N)NC(=O)[C@H](CS)NC(=O)[C@H](Cc1ccccc1)NC(=O)[C@H](CCCN=C(N)N)NC(=O)[C@H](CCCN=C(N)N)NC(=O)[C@H](CCCN=C(N)N)NC(=O)[C@H](CS)NC(=O)[C@H](CCCN=C(N)N)NC(=O)[C@@H]1CCCN1C(=O)[C@H](CCCN=C(N)N)NC(=O)[C@@H]1CCCN1` [PRPRCRRRFCRPRP], the MIC in [6] is 8 µM (≈ 14.8 µg/mL); in test [7], more than 128 µM; in test [8], more than 128 µM; in [9], more than 128 µM; in [10], not below 128 µM; in test [5], 16 µM (≈ 29.6 µg/mL). Also, the minimum inhibitory concentration (MIC) in test [12] is not below 128 µM; in test [14] it was more than 128 µM.

With `NC(=O)[C@H](Cc1c[nH]c2ccccc12)NC(=O)[C@H](Cc1c[nH]c2ccccc12)NC(=O)[C@H](CCCN=C(N)N)NC(=O)[C@H](CCCN=C(N)N)NC(=O)[C@H](Cc1c[nH]c2ccccc12)NC(=O)[C@H](CCCN=C(N)N)NC(=O)[C@H](CCCN=C(N)N)NC(=O)[C@H](Cc1c[nH]c2ccccc12)NC(=O)[C@H](Cc1c[nH]c2ccccc12)NC(=O)[C@@H](N)CCCN=C(N)N` [RWWRRWRRWW], the MIC in test [15] was 32 µM (≈ 55.3 µg/mL); in test [2], 8 µM (≈ 13.8 µg/mL); in test [7], 32 µM (≈ 55.3 µg/mL); in [8] it was 8 µM (≈ 13.8 µg/mL); in test [4] it was 4 µM (≈ 6.92 µg/mL); in test [9], 32 µM (≈ 55.3 µg/mL). The MIC in [5] and in test [16] was 32 µM (≈ 55.3 µg/mL) in each case.
